Structures are written as SMILES. Marks after values point to notes of the source that are not given here.

Data set [1] deals with green peach aphid (Myzus persicae). The experiment in a line: Myzus persicae test (MYZUPE), leaf immersion. It counts as in vivo. As to conditions: 500 ppm; cabbage leaves immersed. The procedure:
[table] A suitable preparation of active compound is prepared by mixing 1 part by weight of active compound with the stated amounts of solvent and emulsifier and diluting the concentrate with emulsifier-containing water to the desired concentration. Leaves of cabbage (Brassica oleracea) heavily infested by the green peach aphid (Myzus persicae) are treated by being immersed in the preparation of active compound at the desired concentration. After the desired time, the kill rate in % is determined. 100% means that all of the aphids have been killed; 0% means that no aphids have been killed.

In a further data set the test system is Pyricularia oryzae. It counts as cell-based. As to conditions: tested at 0.1, 1, 10 and 100 ppm, 20° C., 3 to 5 days, photometric at 620 nm.
Data set [2] has as its system Lolium. The experiment in a line: Post-emergence herbicidal effect, greenhouse. As to conditions: 320 g a.i./ha, scored after about 3 weeks. It counts as in vivo. The procedure: (§1) Seeds of mono- and dicotyledonous weed and crop plants are placed in sandy loam soil in wood fibre pots, covered with soil and cultivated in a greenhouse under good growth conditions. 2-3 weeks after sowing, the trial plants are treated at the one-leaf stage. The test compounds, formulated as wettable powders (WP), are sprayed at various dosages with a water application rate of 600 l/ha (converted) and with addition of 0.2% wetting agent to the green parts of the plants. After the trial plants have stood in the greenhouse for about 3 weeks under optimum growth conditions, the effect of the products is scored visually in comparison to untreated controls (herbicidal effect in percent (%): 100% effect=plants have died, 0% effect=like control plants).

The subject of data set [3] is Setaria. Briefly: Post-emergence herbicidal effect, greenhouse. It counts as in vivo. As to conditions: 320 g a.i./ha, scored after about 3 weeks. As for the experimental part:
as §1

The test system of data set [4] is Echinochloa. Briefly: Post-emergence herbicidal effect, greenhouse. It counts as in vivo. Conditions: 320 g a.i./ha, scored after about 3 weeks. As for the experimental part:
as §1

For a further data set, the system named is Sinapis. The experiment in a line: Post-emergence herbicidal effect, greenhouse. It counts as in vivo. Conditions: 320 g a.i./ha, scored after about 3 weeks. As for the experimental part: as §1
The nature of data set [5]: logP by HPLC on a reversed-phase column (C18), EEC Directive 79/831 Annex V.A8. Conditions: reversed-phase C18, 43° C., pH variant not stated for these values. The data set is classed as physicochemical. The source says:
[table] The determination is made in the acidic range at a pH of 2.3 using 0.1% aqueous phosphoric acid and acetonitrile as eluents; linear gradient from 10% acetonitrile to 95% acetonitrile. The determination with LC-MS in the acidic range is made at a pH of 2.7 with 0.1% aqueous formic acid and acetonitrile (containing 0.1% formic acid) as eluents; linear gradient from 10% acetonitrile to 95% acetonitrile. The determination with LC-MS in the neutral range is made at a pH of 7.8 with 0.001 molar aqueous ammonium hydrogen carbonate solution and acetonitrile as eluents; linear gradient from 10% acetonitrile to 95% acetonitrile. Calibration is carried out with unbranched alkan-2-ones (having 3 to 16 carbon atoms), for which the logP values are known (logP values determined on the basis of the retention times by means of linear interpolation between two successive alkanones).

The test system of data set [6] is Lolium. The experiment in a line: Pre-emergence herbicidal effect, greenhouse. It counts as in vivo. Conditions: scored after 3 weeks. The source says: (§2) Seeds of mono- and dicotyledonous weed and crop plants are placed in sandy loam soil in wood fibre pots and covered with soil. The test compounds, formulated as wettable powders (WP), are then applied as an aqueous suspension with a water application rate of 600 l/ha (converted) and with addition of 0.2% wetting agent, in different dosages to the surface of the covering soil. After the treatment, the pots are placed in a greenhouse and maintained under optimum growth conditions for the test plants. The visual scoring of the emergence damage on the trial plants is carried out after a trial time of 3 weeks in comparison to untreated controls (herbicidal effect in percent (%): 100% effect=plants have died, 0% effect=like control plants).

Data set [7] relates to Setaria. The experiment in a line: Pre-emergence herbicidal effect, greenhouse. The data set is classed as in vivo. As to conditions: scored after 3 weeks.
Source text: as §2

The subject of a further data set is Sugarbeets. Briefly: Post-emergence herbicidal effect, greenhouse. It counts as in vivo. As to conditions: 320 g a.i./ha, scored after about 3 weeks. As for the experimental part:
as §1

Another data set has as its system Digitaria. The experiment in a line: Post-emergence herbicidal effect, greenhouse. Conditions: 320 g a.i./ha, scored after about 3 weeks. It counts as in vivo. The procedure:
as §1

The test system of another data set is Sorghum. Briefly: Post-emergence herbicidal effect, greenhouse. It counts as in vivo. Conditions: 320 g a.i./ha, scored after about 3 weeks. The procedure:
as §1

The subject of the next data set is Plasmopara viticola. The experiment in a line: Plasmopara test (grapevine)/protective. The data set is classed as in vivo. As to conditions: protective, 100 g/ha, 6 days after inoculation. As for the experimental part: (§3) [table] A suitable preparation of active compound is prepared by mixing 1 part by weight of active compound with the stated amounts of solvent and emulsifier and diluting the concentrate with water to the desired concentration. To test for protective activity, young plants are sprayed with the preparation of active compound at the stated application rate. After the spray coating has dried on, the plants are inoculated with an aqueous spore suspension of Plasmopara viticola and then spend 1 day in an incubation cabin at about 20° C. and 100% relative humidity. Thereafter the plants are placed in a greenhouse for 4 days at about 21° C. and about 90% humidity. The plants are then moistened and placed in an incubation cabin for 1 day.

In the next data set the test system is Botrytis cinerea. The experiment in a line: Botrytis test (bean)/protective. The data set is classed as in vivo. Conditions: protective, 500 g/ha, two days after inoculation. As for the experimental part: A suitable preparation of active compound is prepared by mixing 1 part by weight of active compound with the stated amounts of solvent and emulsifier and diluting the concentrate with water to the desired concentration.
To test for protective activity, young plants are sprayed with the preparation of active compound at the stated application rate. After the spray coating has dried on, two small pieces of agar colonized by Botrytis cinerea are placed on each leaf. The inoculated plants are placed in a darkened chamber at about 20° C. and 100% humidity.
Two days after inoculation, the size of the infestation spots on the leaves is evaluated. 0% denotes an efficacy corresponding to that of the control, while an efficacy of 100% denotes a total absence of observed infestation.

The subject of data set [8] is Echinochloa. Briefly: Pre-emergence herbicidal effect, greenhouse. It counts as in vivo. Conditions: 1000 g a.i./ha, scored after 3 weeks.
Source text: as §2

In a further data set the test system is Venturia inaequalis. Briefly: Venturia test (apple)/protective. It counts as in vivo. Conditions: protective, 100 g/ha, 10 days after inoculation. The procedure: as §3, with “conidia” for “spore”, “the causative organism of apple scab, Venturia inaequalis,” for “Plasmopara viticola”, “greenhouse” for “greenhouse for 4 days”, “90% relative” for “90%”, “humidity.” for “humidity. The plants are then moistened and placed in an incubation cabin for 1 day.”

Take `CC1(C)OC(=O)C(Cl)(c2cc(-c3ccc(Cl)cc3)ccc2Cl)C(=O)C1(C)C` (stereo not shown) [Example I-2-1]: in [1], the “activity (kill rate in %)” value was ≥ 80%. Further, the “ED50 (dose leading to 50% inhibition of fungal growth)” value in the data set on Pyricularia oryzae is given as 0.48 ppm.
For the molecule `CCc1cc(Br)ccc1C1(Cl)C(=O)N(C)OC(C)(C)C1=O` (stereo not shown) [Example I-1-10], in the data set on Lolium [2], the “herbicidal effect in percent, Lolium” value is recorded as 90%. For the same molecule, in the data set on Setaria [3], the “herbicidal effect in percent, Setaria” value is 80%. The “herbicidal effect in percent, Echinochloa” value in the data set with Echinochloa [4] was 90%.
In the case of `Cc1ccc(C2(Cl)C(=O)N(C)OC(C)(C)C2=O)c(Cl)c1` (stereo not shown) [Example I-1-1], the “ED50 (dose leading to 50% inhibition of fungal growth)” value in the data set with Pyricularia oryzae is given as <0.1 ppm.
Take `Cc1ccc(-c2ccc(Cl)cc2)cc1C1(Cl)C(=O)OC(C)(C)C(C)(C)C1=O` (stereo not shown) [Example I-2-10]: the “herbicidal effect in percent, Lolium” value in the data set with Lolium [2] is 70%. Further, the “herbicidal effect in percent, Sinapis” value in the data set on Sinapis was determined as 80%. For the same molecule, in the data set with Setaria [3], the “herbicidal effect in percent, Setaria” value was determined as 90%. Besides, the “herbicidal effect in percent, Echinochloa” value in the data set with Echinochloa [4] came out at 70%.
Regarding `Cc1ccc(-c2ccc(C(F)(F)F)cc2)cc1C1(Cl)C(=O)N(C)OC(C)(C)C1=O` (stereo not shown) [Example I-1-12], in data set [5], the “log P” value was “log P 4.56*”.
Consider `CC1(C)OC(=O)C(Cl)(c2cc(-c3ccc(Cl)cc3Cl)ccc2Cl)C(=O)C1(C)C` (stereo not shown) [Example I-2-6], for which, in the data set with Lolium [2], the “herbicidal effect in percent, Lolium” value amounted to 70%. In addition, the “herbicidal effect in percent, Sinapis” value in the data set on Sinapis is recorded as 40%. In addition, the “herbicidal effect in percent, Setaria” value in the data set on Setaria [3] came to 90%. Also, the “herbicidal effect in percent, Echinochloa” value in the data set with Echinochloa [4] worked out at 90%.
On to `CCc1cc(Cl)cc(Cl)c1C1(Cl)C(=O)N(C)OC(C)(C)C1=O` (stereo not shown) [Example I-1-7], for which the “herbicidal effect in percent, Lolium” value was 90% with Lolium [2] and 100% in the data set on Lolium [6] (320 g a.i./ha). Further, the “herbicidal effect in percent, Setaria” value stood at 90% in the data set on Setaria [3] and 100% in the data set on Setaria [7] (320 g a.i./ha). Moreover, the “herbicidal effect in percent, Echinochloa” value with Echinochloa [4] was determined as 90%.
In the case of `CN1OC(C)(C)C(=O)C(Cl)(c2cc(-c3ccc(Cl)cc3)ccc2Cl)C1=O` (stereo not shown) [Example I-1-11], in data set [5], the “log P” value was “log P 4.58*”.
As to `Cc1ccc(-c2ccc(Cl)cc2)cc1C1(Cl)C(=O)OC2CCCCC2(C)C1=O` (stereo not shown) [Example I-2-2], the “herbicidal effect in percent, Sugarbeets” value in the data set on Sugarbeets amounted to 0%. Further, the “herbicidal effect in percent, Lolium” value in the data set on Lolium [2] and in the data set on Lolium [6] (1000 g a.i./ha) was 80% throughout. The “herbicidal effect in percent, Setaria” value with Setaria [3] and in the data set with Setaria [7] (1000 g a.i./ha) was 100% throughout. Further, the “herbicidal effect in percent, Digitaria” value with Digitaria stood at 100%. The “herbicidal effect in percent, Sorghum” value in the data set with Sorghum was 80%. Further, the “herbicidal effect in percent, Echinochloa” value in the data set with Echinochloa [4] and in the data set on Echinochloa [8] was 100% in each case. Further, the Efficacy in % in the data set on Plasmopara viticola was determined as 100%; in the data set on Botrytis cinerea it was 93%; in the data set on Venturia inaequalis it was 99%. Further, the “ED50 (dose leading to 50% inhibition of fungal growth)” value in the data set on Pyricularia oryzae worked out at 0.12 ppm.
